Assay results: patent US20250144224A1, “ABL INHIBITORS AND USES THEREOF” (The Regents of the University of California, priority 2021, published 2025)

Tests used:
[1] = Parallel artificial membrane permeability assay (PAMPA); type: in vitro ADME; settings: 100 μM in PBS, 5 h, LC-MS
Procedure: PAMPA was performed by Quintara Discovery using the BioCoat Pre-coated PAMPA Plate System (Corning) as described previously (15) and based on manufacturer's recommendations. All compounds were assessed at 100 μM in PBS. Compound concentrations in donor and acceptor compartments were quantified using liquid chromatography-mass spectrometry (LC-MS) 5 h following compound addition into the donor compartment.

[2] = test system: K562 CRISPRi or CRISPRa cells with IFITM1-3 expression modulation; assay: Chemical-genetic interaction mapping (IC50 shift in cell viability assay); type: cell-based, human; settings: IFITM1-3 knockdown (CRISPRi) or overexpression (CRISPRa), 72 h
Procedure: Cell viability was assessed by CellTiter-Glo (CTG) Luminescent Cell Viability Assay (Promega). Cells were equilibrated to room temperature before the addition of diluted (1:4 CTG reagent:PBS) CTG reagent (100 μL per well). Plates were agitated on an orbital shaker and luminescence signal was measured on a SpectraMax M5 (Molecular Devices) or Spark (Tecan) plate reader. Repeated measurements of luminescence were performed as technical replicates to determine incubation times optimal for signal-to-noise. Luminescence measurements were normalized to DMSO-treated values to determine relative cell viability.
Cells treated with compounds were evaluated for viability as described herein. […] The same top concentrations were used in K562 CRISPRa cells with the exception of HJB97 (1 μM), JQ1 (1 μM), MZ1 (1 μM), and dBET6 (100 nM). Using Prism 9 (GraphPad Software), a 4-parameter nonlinear regression model was fit to the viability data to determine IC50 values. IC50 values of sgRNA+ cells were normalized to that of non-sgRNA expressing cells to determine sensitivity/resistance chemical-genetic interactions mapped in FIG. 4B.

[3] = test system: intracellular BCR-ABL1 in K562 CRISPRi/a cells; assay: Immunoblots of pharmacodynamic markers of BCR-ABL1 inhibition; type: cell-based, human; settings: nanomolar concentrations (10 nM)
Procedure: FIGS. 3A-3F. […] Data represent two biological replicates. […] Data represent three biological replicates.
Cells (500,000 cells in 2 mL per well) were seeded into 6-well plates and incubated at 37° C. overnight. Following treatment with compounds at the concentrations and times indicated, cells were placed over ice, transferred to 2 mL microcentrifuge tubes, and pelleted at 500 g, 4° C. The pelleted cells were washed twice with ice-cold phosphate-buffered saline (PBS) and stored at −80° C. […] Proteins were separated by polyacrylamide gel electrophoresis (PAGE), transferred to 0.2 μm pore size nitrocellulose membranes (Bio-Rad) and blocked using blocking buffer [5% bovine serum albumin (Millipore) in Tris-buffered saline, 0.1% Tween 20 (TBST) supplemented with 0.02% NaN3]. Membranes were probed with primary antibodies against FKBP12 (ab58072) from Abcam and p-ABL1^Y245 (2861), p-CRKL^Y207 (3181), IFITM1 (13126), IFITM2 (13530), IFITM3 (59212), p-STAT5^Y694 (4322), and Tubulin (3873) from Cell Signaling Technology diluted (1:1000) in blocking buffer. After primary antibody incubation, membranes were treated with IRDye secondary antibodies (LI-COR Biosciences) according to manufacturer's recommendations and scanned on an Odyssey Imaging System (LI-COR Biosciences). Immunoblot scans were processed using ImageStudioLite 5.2.5 (LI-COR).

K562 cells (wild-type) = assay: CellTiter-Glo cell viability, K562 wild-type; settings: Homo sapiens, K562, 72 h, read-out: EC50 (nM) CTG K562 wt
Procedure: (§1) Compounds were tested for ability to inhibit cell growth. K562 cells (wild-type or CRISPR base-edited Bcr-Abl T315I) were plated at 1000 cells/well in 96-well plates and treated with the indicated compounds at the indicated concentrations for three days in triplicate, then tested for cell viability by the CellTiter-Glo 2.0 assay (Promega).
(§2) Compounds were tested for ability to inhibit cell growth. K562 cells (wild-type or CRISPR base-edited Bcr-Abl T315I) were plated at 1000 cells/well in 96-well plates and treated with the indicated compounds at the indicated concentrations for three days in triplicate, then tested for cell viability by the CellTiter-Glo 2.0 assay (Promega). […] Compounds were tested for ability to inhibit cell growth. K562 cells (wild-type or CRISPR base-edited Bcr-Abl T315I) were plated at 1000 cells/well in 96-well plates and treated with the indicated compounds at the indicated concentrations for three days in triplicate, then tested for cell viability by the CellTiter-Glo 2.0 assay (Promega).
(§3) Cells were treated with the indicated concentrations of compound in 9-point 3-fold dilution series (100 μL final volume per well) and incubated at 37° C. for 72 h. Cell viability was assessed by CellTiter-Glo (CTG) Luminescent Cell Viability Assay (Promega). Cells were equilibrated to room temperature before the addition of diluted (1:4 CTG reagent:PBS) CTG reagent (100 μL per well). Plates were agitated on an orbital shaker and luminescence signal was measured on a SpectraMax M5 (Molecular Devices) or Spark (Tecan) plate reader. Repeated measurements of luminescence were performed as technical replicates to determine incubation times optimal for signal-to-noise. Luminescence measurements were normalized to DMSO-treated values to determine relative cell viability.

[4] = test system: K562 cells (CRISPR base-edited Bcr-Abl T315I); assay: CellTiter-Glo cell viability, K562 Bcr-Abl T315I; settings: Homo sapiens, K562, 72 h, read-out: EC50 (nM) CTG K562 T315I
Procedure: as §1, §2, §3

[5] = test system: kinases labeled by XO44 in K562 CRISPRi cells; assay: Live cell kinase occupancy profiling with XO44 probe; settings: 100 nM, 4 h pretreatment, then XO44, live K562 CRISPRi cells
ABL1 kinase domain = molecular target: T1, ABL1 kinase domain (Homo sapiens, UniProt P00519); assay: ATP-site kinase pulldown (KdELECT competition binding); settings: 100-fold molar excess asciminib
T1 sequence (P00519 242-493 limits assumed): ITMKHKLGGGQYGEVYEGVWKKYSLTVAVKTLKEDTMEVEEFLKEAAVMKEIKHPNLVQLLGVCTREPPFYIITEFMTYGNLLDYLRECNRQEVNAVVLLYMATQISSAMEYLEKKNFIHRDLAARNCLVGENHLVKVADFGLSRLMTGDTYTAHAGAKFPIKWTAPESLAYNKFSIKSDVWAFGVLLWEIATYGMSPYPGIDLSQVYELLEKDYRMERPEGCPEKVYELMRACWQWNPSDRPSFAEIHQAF
Procedure: ATP-site competition binding assay (KdELECT) was performed by Eurofins DiscoverX as described previously (11). Compounds were assessed in 11-point 3-fold dilution series and compound mixtures were analogously diluted from a DMSO stock containing the 2 compounds at the ratio indicated. Pulldown measurements of DNA-tagged kinase by quantitative polymerase chain reaction (qPCR) were normalized to DMSO-treated values to determine relative ATP-site pulldown. A 4-parameter nonlinear regression model was fit to the data using Prism 9 (GraphPad Software) with the top parameter constrained to 100%.

With `Cc1nc(Nc2ncc(C(=O)Nc3c(C)cccc3Cl)s2)cc(N2CCN(C(=O)CCOCCOCCOCCOCCOCCOCCOCCOCCOCCOCCOCCOCCNC(=O)C3CCN(c4ncc(C(=O)Nc5ccc(OC(F)(F)Cl)cc5)cc4-c4ccn[nH]4)CC3)CC2)n1` [DasatiLink-1] the “artificial membrane permeability by PAMPA” value [1] was “impermeable”, the “IFITM dependency of potency (IC50 shift in cell viability assay)” value [2] was “validated the IFITM dependency” and the “time required for maximal inhibition of target” value [3] was “multiple hours”. The EC50 (K562 cells (wild-type)) was 2.47 nM, the EC50 [4] was greater than 300 nM and the “intracellular kinase occupancy (kinome-wide selectivity)” value [5] was “observable intracellular occupancy of only a single kinase”. For the same molecule, the “effect of excess asciminib on ability to occupy the ATP-site” value (ABL1 kinase domain) was “impaired the ability of DasatiLink-1 to occupy the ATP-site”.
